From the NIST ThermoML archive (doi:10.1016/j.fluid.2017.12.010)
± gives the expanded uncertainty stated by the source.

Test: xn = mol fraction of the nth substance listed
Settings: Liquid, Vibrating tube method

CCCCCCCCCCCC [dodecane] + CCCCCCCCCC
Settings	mass density [kg/m3]
342.94 K, 80000 kPa, x2 = 0.2297	765 ± 3
342.94 K, 80000 kPa, x2 = 0.6433	758 ± 3
342.94 K, 100000 kPa, x2 = 0.2297	774 ± 3
342.94 K, 100000 kPa, x2 = 0.6433	768 ± 3
342.95 K, 100 kPa, x2 = 0.7841	698 ± 3
342.95 K, 1000 kPa, x2 = 0.7841	699 ± 3
342.96 K, 5000 kPa, x2 = 0.7841	703 ± 3
342.97 K, 10000 kPa, x2 = 0.7841	708 ± 3
342.97 K, 20000 kPa, x2 = 0.7841	717 ± 3
342.98 K, 30000 kPa, x2 = 0.7841	724 ± 3
342.98 K, 40000 kPa, x2 = 0.7841	732 ± 3
342.99 K, 60000 kPa, x2 = 0.7841	744 ± 3
343 K, 80000 kPa, x2 = 0.7841	756 ± 3
343 K, 99990 kPa, x2 = 0.7841	766 ± 3
352.58 K, 100 kPa, x2 = 0	707 ± 3
352.58 K, 1000 kPa, x2 = 0	708 ± 3
352.58 K, 5000 kPa, x2 = 0	712 ± 3
352.58 K, 10000 kPa, x2 = 0	716 ± 3
352.58 K, 20000 kPa, x2 = 0	725 ± 3
352.58 K, 30000 kPa, x2 = 0	733 ± 3
352.58 K, 40000 kPa, x2 = 0	740 ± 3
352.58 K, 50000 kPa, x2 = 0	747 ± 3
352.58 K, 60000 kPa, x2 = 0	753 ± 3
352.58 K, 70000 kPa, x2 = 0	759 ± 3
352.58 K, 80000 kPa, x2 = 0	764 ± 3
352.58 K, 90000 kPa, x2 = 0	769 ± 3
352.58 K, 100000 kPa, x2 = 0	774 ± 3
352.73 K, 100 kPa, x2 = 0.2297	702 ± 3
352.74 K, 1000 kPa, x2 = 0.2297	703 ± 3
352.74 K, 5000 kPa, x2 = 0.2297	707 ± 3
352.75 K, 10000 kPa, x2 = 0.2297	712 ± 3
352.75 K, 20000 kPa, x2 = 0.2297	721 ± 3
352.75 K, 30000 kPa, x2 = 0.2297	729 ± 3
352.75 K, 40000 kPa, x2 = 0.2297	736 ± 3
352.76 K, 60000 kPa, x2 = 0.2297	749 ± 3
352.76 K, 80000 kPa, x2 = 0.2297	760 ± 3
352.76 K, 100000 kPa, x2 = 0.2297	770 ± 3
352.78 K, 100 kPa, x2 = 0.6433	694 ± 3
352.78 K, 1000 kPa, x2 = 0.6433	695 ± 3
352.78 K, 5000 kPa, x2 = 0.6433	699 ± 3
352.78 K, 10000 kPa, x2 = 0.6433	704 ± 3
352.78 K, 20000 kPa, x2 = 0.6433	713 ± 3
352.78 K, 30000 kPa, x2 = 0.6433	721 ± 3
352.78 K, 40000 kPa, x2 = 0.6433	729 ± 3
352.79 K, 5000 kPa, x2 = 0.4436	703 ± 3
352.79 K, 60000 kPa, x2 = 0.6433	742 ± 3
352.79 K, 79990 kPa, x2 = 0.6433	754 ± 3
352.79 K, 100000 kPa, x2 = 0.6433	764 ± 3
352.8 K, 1000 kPa, x2 = 0.4436	699 ± 3
352.8 K, 10000 kPa, x2 = 0.4436	708 ± 3
352.8 K, 20000 kPa, x2 = 0.4436	717 ± 3
352.81 K, 100 kPa, x2 = 0.4436	698 ± 3
352.81 K, 1000 kPa, x2 = 0.7841	692 ± 3
352.81 K, 30000 kPa, x2 = 0.4436	725 ± 3
352.81 K, 40000 kPa, x2 = 0.4436	733 ± 3
352.81 K, 60000 kPa, x2 = 0.4436	746 ± 3
352.81 K, 99990 kPa, x2 = 0.4436	767 ± 3
352.82 K, 100 kPa, x2 = 0.7841	691 ± 3
352.82 K, 80000 kPa, x2 = 0.4436	757 ± 3
352.83 K, 5000 kPa, x2 = 0.7841	696 ± 3
352.84 K, 10000 kPa, x2 = 0.7841	701 ± 3
352.84 K, 20000 kPa, x2 = 0.7841	711 ± 3
352.85 K, 30000 kPa, x2 = 0.7841	719 ± 3
352.85 K, 40000 kPa, x2 = 0.7841	726 ± 3
352.85 K, 60000 kPa, x2 = 0.7841	740 ± 3
352.85 K, 80000 kPa, x2 = 0.7841	751 ± 3
352.85 K, 100000 kPa, x2 = 0.7841	762 ± 3
362.48 K, 5000 kPa, x2 = 0	704 ± 3
362.48 K, 10000 kPa, x2 = 0	709 ± 3
362.48 K, 20000 kPa, x2 = 0	718 ± 3
362.48 K, 30000 kPa, x2 = 0	726 ± 3
362.48 K, 50000 kPa, x2 = 0	741 ± 3
362.48 K, 80000 kPa, x2 = 0	759 ± 3
362.48 K, 90000 kPa, x2 = 0	764 ± 3
362.49 K, 100 kPa, x2 = 0	699 ± 3
362.49 K, 1000 kPa, x2 = 0	700 ± 3
362.49 K, 40000 kPa, x2 = 0	734 ± 3
362.49 K, 60000 kPa, x2 = 0	747 ± 3
362.49 K, 70000 kPa, x2 = 0	753 ± 3
362.49 K, 100000 kPa, x2 = 0	769 ± 3
362.57 K, 100 kPa, x2 = 0.2297	695 ± 3
362.57 K, 1000 kPa, x2 = 0.2297	696 ± 3
362.58 K, 5000 kPa, x2 = 0.2297	700 ± 3
362.58 K, 10000 kPa, x2 = 0.2297	705 ± 3
362.58 K, 20000 kPa, x2 = 0.2297	714 ± 3
362.58 K, 30000 kPa, x2 = 0.2297	722 ± 3
362.59 K, 40000 kPa, x2 = 0.2297	730 ± 3
362.59 K, 60000 kPa, x2 = 0.2297	743 ± 3
362.59 K, 80000 kPa, x2 = 0.2297	755 ± 3
362.59 K, 100000 kPa, x2 = 0.2297	765 ± 3
362.61 K, 100 kPa, x2 = 0.4436	690 ± 3
362.61 K, 1000 kPa, x2 = 0.4436	691 ± 3
362.62 K, 100 kPa, x2 = 0.6433	686 ± 3
362.62 K, 1000 kPa, x2 = 0.6433	687 ± 3
362.62 K, 5000 kPa, x2 = 0.4436	696 ± 3
362.62 K, 5000 kPa, x2 = 0.6433	691 ± 3
362.62 K, 10000 kPa, x2 = 0.4436	701 ± 3
362.62 K, 10000 kPa, x2 = 0.6433	697 ± 3
362.62 K, 20000 kPa, x2 = 0.4436	710 ± 3
362.62 K, 30000 kPa, x2 = 0.4436	719 ± 3
362.62 K, 40000 kPa, x2 = 0.4436	726 ± 3
362.62 K, 60000 kPa, x2 = 0.4436	740 ± 3
362.62 K, 80000 kPa, x2 = 0.4436	752 ± 3
362.63 K, 20000 kPa, x2 = 0.6433	706 ± 3
362.63 K, 30000 kPa, x2 = 0.6433	715 ± 3
362.63 K, 40000 kPa, x2 = 0.6433	722 ± 3
362.63 K, 60000 kPa, x2 = 0.6433	736 ± 3
362.63 K, 80000 kPa, x2 = 0.6433	748 ± 3
362.63 K, 99990 kPa, x2 = 0.6433	758 ± 3
362.63 K, 100000 kPa, x2 = 0.4436	762 ± 3
362.64 K, 100 kPa, x2 = 0.7841	682 ± 3
362.64 K, 1000 kPa, x2 = 0.7841	683 ± 3
362.65 K, 5000 kPa, x2 = 0.7841	688 ± 3
362.65 K, 10000 kPa, x2 = 0.7841	693 ± 3
362.66 K, 20000 kPa, x2 = 0.7841	703 ± 3
362.66 K, 30000 kPa, x2 = 0.7841	712 ± 3
362.66 K, 40000 kPa, x2 = 0.7841	719 ± 3
362.66 K, 60000 kPa, x2 = 0.7841	733 ± 3
362.66 K, 80000 kPa, x2 = 0.7841	745 ± 3
362.66 K, 100010 kPa, x2 = 0.7841	756 ± 3
